Assay results taken from patent US7291641B2, “Derivatives of heterocycles with 5 members, their preparation and their use as medicaments” (Societe de Conseils de Recherches et d'Applications …, priority 1999, dated 2007).
Where a name gives a salt, the structure may show the parent alone.

Structure (SMILES)	melting point
NCCc1nc(-c2ccc(-c3ccccc3)cc2)c[nH]1 (as salt: hydrochloride) [Example 161, 2-(4-[1,1′-biphenyl]4-yl-1H-imidazol-2-yl)ethanamine]	228 to 230 °C
c1ccc(-c2c[nH]c([C@@H](Cc3c[nH]c4ccccc34)Nc3ncccn3)n2)cc1 [Example 44, N-[(1R)-2-(1H-indol-3-yl)-1-(4-phenyl-1H-imidazol-2-yl)ethyl]-2-pyrimidinamine]	138 to 140 °C
CCCCCCC(N)c1nc(-c2cccc(OC)c2)c[nH]1 (racemic) (as salt: hydrochloride) [Example 69, (R,S)-1-[4-(3-methoxyphenyl)-1H-imidazol-2-yl]heptylamine]	110 to 112 °C
NCCCc1nc(-c2ccc(-c3ccccc3)cc2)c[nH]1 (as salt: hydrochloride) [Example 179, 3-(4-[1,1′-biphenyl]-4-yl-1H-imidazol-2-yl)-1-propanamine]	> 260 °C
CCCCCCC(NC(=O)OC(C)(C)C)c1nc(-c2ccccc2OC)c[nH]1 (racemic) [Example 183, tert-butyl (R,S)-1-[4-(2-methoxyphenyl)-1H-imidazol-2-yl]heptylcarbamate]	64 to 65 °C
Cn1cc(-c2ccc(-c3ccccc3)cc2)nc1CN (as salt: hydrochloride) [Example 55, (4-[1,1′-biphenyl]-4-yl-1-methyl-1H-imidazol-2-yl)methanamine]	279 to 280 °C
CCCCCCNC(CCCCCC)c1nc(-c2ccccc2)c[nH]1 (racemic) [Example 64, (R,S)-N-hexyl-1-(4-phenyl-1H-imidazol-2-yl)-1-heptanamine]	140 to 142 °C
CCCCOC(=O)NC(C)(C)c1nc(-c2ccc(-c3ccccc3)cc2)c[nH]1 [Example 238, 4-(2-{1-[(butoxycarbonyl)amino]-1-methylethyl}-1H-imidazol-4-yl)-1,1′-biphenyl]	170 to 172 °C
CCCCCCC(N)c1nc(-c2cccc(Br)c2)c[nH]1 (racemic) (as salt: hydrochloride) [Example 191, (R,S)-1-[4-(3-bromophenyl)-1H-imidazol-2-yl]-1-heptanamine]	230 to 231 °C
CC(C)(C)NC(=S)NCCc1nc(-c2ccc(-c3ccccc3)cc2)c[nH]1 [Example 172, 4-[2-(2-{[(tert-butylamino)carbothioyl]amino}ethyl)-1H-imidazol-4-yl]-1,1′-biphenyl]	98 to 99 °C
CCCCCCC(NC1CCCCC1)c1nc(-c2ccccc2)c[nH]1 (racemic) [Example 76, (R,S)-N-[1-(4-phenyl-1H-imidazol-2-yl)heptyl]cyclohexanamine]	68 to 70 °C
N[C@H](CCc1ccccc1)c1nc(-c2ccccc2)c[nH]1 (as salt: hydrochloride) [Example 131, (1R)-3-phenyl-1-(4-phenyl-1H-imidazol-2-yl)-1-propanamine]	174 to 176 °C
CCCCOC(=O)NCc1nc(-c2ccc(-c3ccccc3)cc2)c[nH]1 [Example 78, butyl (4-[1,1′-biphenyl]-4-yl-1H-imidazol-2-yl)methylcarbamate]	130 to 132 °C
c1ccc(CN[C@H](Cc2c[nH]c3ccccc23)c2nc(-c3ccccc3)c[nH]2)cc1 [Example 88, (1R)-N-benzyl-2-(1H-indol-3-yl)-1-(4-phenyl-1H-imidazol-2-yl)ethanamine]	100 to 102 °C
CNCc1nc(-c2ccccc2)c(-c2ccccc2)[nH]1 (as salt: hydrochloride) [Example 162, (4,5-diphenyl-1H-imidazol-2-yl)-N-methylmethanamine]	198 to 200 °C
CCCCCC(N)c1nc(-c2ccccc2)c[nH]1 (racemic) (as salt: hydrochloride) [Example 65, (R,S)-1-(4-phenyl-1H-imidazol-2-yl)hexylamine]	146 to 148 °C
CCCCCCC(N)c1nc(-c2ccc(C)cc2)c[nH]1 (racemic) (as salt: hydrochloride) [Example 184, (R,S)-1-[4-(4-methylphenyl)-1H-imidazol-2-yl]-1-heptanamine]	157 to 160 °C
CCCCC(N)c1nc(-c2ccc(-c3ccccc3)cc2)c[nH]1 (racemic) (as salt: hydrochloride) [Example 175, (R,S)-1-(4-[1,1′-biphenyl]-4-yl-1H-imidazol-2-yl)-1-pentanamine]	197 to 200 °C
N[C@H](CC1CCCCC1)c1nc(-c2ccc(-c3ccccc3)cc2)c[nH]1 (as salt: hydrochloride) [Example 154]	178 to 180 °C
Fc1ccc(-c2c[nH]c([C@@H](NC3CCC3)C3CCCCC3)n2)cc1 [Example 35, N-{(S)-cyclohexyl[4-(4-fluorophenyl)-1H-imidazol-2-yl]methyl}cyclobutanamine]	170 to 172 °C
Fc1cccc(-c2c[nH]c([C@@H](NC3CCC3)C3CCCCC3)n2)c1 [Example 87, N-{(S)-cyclohexyl[4-(3-fluorophenyl)-1H-imidazol-2-yl]methyl}-cyclobutanamine]	172 to 176 °C
CC(C)(C)c1cn(Cc2ccccc2)c([C@@H](Cc2c[nH]c3ccccc23)NCc2ccccc2)n1 [Example 39, (1R)-N-benzyl-1-(1-benzyl-4-tert-butyl-1H-imidazol-2-yl)-2-(1H-indol-3-yl)ethanamine]	60 to 62 °C
c1ccc(OCCN[C@H](Cc2c[nH]c3ccccc23)c2nc(-c3ccccc3)cs2)cc1 [Example 112, (1R)-2-(1H-indol-3-yl)-N-(2-phenoxyethyl)-1-(4-phenyl-1,3-thiazol-2-yl)ethanamine]	124 to 126 °C

Results, then the compound that gave them:

melting point	Structure (SMILES)
98.4 °C	CC(C)(C)CCOC(=O)NCCc1nc(-c2ccc(-c3ccccc3)cc2)c[nH]1 [Example 383, 3,3-dimethylbutyl 2-[4-(1,1′-biphenyl-4-yl)-1H-imidazol-2-yl]ethylcarbamate]
132 to 134 °C	O=C(NCCc1nc(-c2ccc(-c3ccccc3)cc2)c[nH]1)OCC1CCCCC1 [Example 280, cyclohexylmethyl 2-(4-[1,1′-biphenyl]-4-yl-1H-imidazol-2-yl)ethylcarbamate]
113.8 °C	CCCCOC(=O)NCCc1nc(-c2ccc(-c3ccccc3F)cc2)c[nH]1 [Example 396, butyl 2-[4-(2′-fluoro-1,1′-biphenyl-4-yl)-1H-imidazol-2-yl]ethylcarbamate]
> 250 °C	Fc1ccc(-c2c[nH]c([C@@H](NC3CCCCC3)C3CCCCC3)n2)cc1 (as salt: hydrochloride) [Example 264, N-{(S)-cyclohexyl[4-(4-fluorophenyl)-1H-imidazol-2-yl]methyl}cyclohexanamine]
245 to 246 °C	NCCCc1nc(-c2ccc(F)cc2)c[nH]1 (as salt: hydrochloride) [Example 343, 3-[4-(4-fluorophenyl)-1H-imidazol-2-yl]propan-1-amine]
136 to 138 °C	CC[C@H](NC(=O)OC(C)(C)C)c1nc(-c2ccccc2)c(-c2ccccc2)[nH]1 [Example 197, tert-butyl (1S)-1-(4,5-diphenyl-1H-imidazol-2-yl)propylcarbamate]
188.2 °C	Fc1ccc(-c2c[nH]c([C@H](NCC3CCCCC3)C3CCCCC3)n2)cc1 (as salt: hydrochloride) [Example 318, (R)-1-cyclohexyl-N-(cyclohexylmethyl)-1-[4-(4-fluorophenyl)-1H-imidazol-2-yl]methanamine]
127 to 130 °C	CC(C)(C)c1ccc(-c2c[nH]c(CCNC(=O)OC3CCCCC3)n2)cc1 [Example 342, cyclohexyl 2-[4-(4-tert-butylphenyl)-1H-imidazol-2-yl]ethylcarbamate]
104 to 106 °C	CC(C)(C)c1ccc(-c2c[nH]c(CCNC(=O)OCC3CCCCC3)n2)cc1 [Example 302, cyclohexylmethyl 2-[4-(4-tert-butylphenyl)-1H-imidazol-2-yl]ethylcarbamate]
132.5 °C	CCOC(=O)NCCc1nc(-c2ccc(-c3ccccc3)cc2)c[nH]1 [Example 246, 4-(2-{2-[(ethoxycarbonyl)amino]ethyl}-1H-imidazol-4-yl)-1,1′-biphenyl]
95.5 °C	CCCCOC(=O)NCCc1nc(-c2ccc(CC(C)C)cc2)c[nH]1 [Example 445, butyl 2-[4-(4-isobutylphenyl)-1H-imidazol-2-yl]ethylcarbamate]
70 to 72 °C	CCCCCCC(NCC(C)C)c1nc(-c2ccccc2)c[nH]1 (racemic) (as salt: acetate) [Example 234, (R,S)-N-isobutyl-1-(4-phenyl-1H-imidazol-2-yl)-1-heptanamine]
204 to 206 °C	CCCCCCC(N)c1nc(-c2cc(C(C)(C)C)c(O)c(C(C)(C)C)c2)c[nH]1 (racemic) (as salt: hydrochloride) [Example 210, (R,S)-4-[2-(1-aminoheptyl)-1H-imidazol-4-yl]-2,6-di(tert-butyl)-phenol]
210 to 213 °C	Fc1ccc(-c2c[nH]c([C@@H](Cc3ccccc3)NC3CCCCC3)n2)cc1 (as salt: hydrochloride) [Example 327, N-{(1R)-1-[4-(4-fluorophenyl)-1H-imidazol-2-yl]-2-phenylethyl}cyclohexanamine]
216.7 °C	CC(C)CCCC(NC1CCCCC1)c1nc(-c2cccc(Br)c2)c[nH]1 (racemic) (as salt: hydrochloride) [Example 272, (R,S)-N-{1-[4-(3-bromophenyl)-1H-imidazol-2-yl]-5-methylhexyl}-cyclohexanamine]
180.9 °C	CCCCOC(=O)NCCc1nc(-c2cc(C(C)(C)C)c(O)c(C(C)(C)C)c2)c[nH]1 [Example 330, butyl 2-[4-(3,5-ditert-butyl-4-hydroxyphenyl)-1H-imidazol-2-yl]ethylcarbamate]
128.5 °C	O=C(NCCc1nc(-c2ccc(N3CCCC3)cc2)c[nH]1)OCC1CCCCC1 [Example 326, cyclohexylmethyl 2-[4-(4-pyrrolidin-1-ylphenyl)-1H-imidazol-2-yl]ethylcarbamate]
149.3 °C	CCCCOC(=O)NCCc1nc(-c2ccc(-c3ccc(F)cc3)cc2)c[nH]1 [Example 392, butyl 2-[4-(4′-fluoro-1,1′-biphenyl-4-yl)-1H-imidazol-2-yl]ethylcarbamate]
